Experimental data from article PMC7402526, “An in vitro quantitative systems pharmacology approach for deconvolving mechanisms of drug-induced, multilineage cytopenias” (PLoS Computational Biology, 2020).

Legend:
[1] = test system: hematopoietic stem cells (HSCs); assay: Multi-lineage toxicity assay (MLTA), HSCs: concentration-response and QSP model fit; format: cell-based, human; design: EmaxAP,HSC / EmaxT,HSC / Emax_drug_HSC: unitless, 0–2; ≤1 anti-proliferative, >1 adds cell killing
Description: (§1) A custom optimized cytokine cocktail was developed using commercially available cytokines (Peprotech, New Jersey) to facilitate simultaneous multi-lineage differentiation and self-renewal of freeze-thawed primary human bone marrow-derived CD34+ cells in SFEM II media (cells and media from StemCell Technologies, Vancouver). Cultures were carried out in ultra-low attachment 96-well plates (Corning, New York) with test article added on day 0 and cultured at 37°C, 85% relative humidity, and 5% CO2 for six days before interrogating drug impact via 17-parameter flow cytometry.
(§2) The flow cytometry panel used to define hematopoietic subsets was composed of CD34-PECy7, CD90-PECY5, CD38-AF488, CD371-PE, CD45Ra-BV421, CD14-BV605, CD42b-AF647, CD10-PEDazzle594, CD235a-PerCPCy5.5 (BioLegend, California), CD15-BUV395, CD41a-APCH7, CD71-BV786 (BD Biosciences, California), and DAPI for dead cell exclusion (ThermoFisher, California). In short, Day 6 cells were harvested, FcR-blocked (FcR binding inhibitor, ThermoFisher), surface-stained, then analyzed in a buffer containing TruCount Control Beads using a BD LSR Fortessa SORP fitted with a high-throughput sampler (BD Biosciences, California). Data was analyzed in Diva 6.0.2 and exported to CSV where after all cell data was transformed to cell per mL then normalized on a per-donor basis to untreated control wells to determine drug impact.
(§3) Donor material was collected and cultured as described above. The number of replicate donor samples per drug ranged from 2–7 and varied per drug (S1 Table). Drug treatment was added at time 0 and cells were maintained in culture for 6 days. Concentrations tested for each drug compound are contained in S1 Table. Concentrations were selected to span a range that is clinically useful. Following treatment, cell populations were measured using flow cytometry. We extracted cell counts from flow cytometry data, normalized to bead counts, and corrected for well volume.
(§4) Each well was normalized to the average of six vehicle control wells. For drugs that were tested across multiple runs of the assay, vehicle-normalized donor data were pooled, and we used the average of these pooled data for further modeling. Normalized data used as model inputs are included in S1 Table.
(§5) We implemented drug effects using an Emax model for the drug’s effect on each cell type. The 13 maximum effect parameters (EmaxT,C) are unitless and can vary between 0 and 2 and where a subscript, C, represents one of the previously described 13 cell types. We adapted a traditional Emax model using the equations below. We interpreted EmaxT values less than or equal to one as anti-proliferative, and EmaxT values greater than one as indicating a cell-killing mechanism in addition to anti-proliferation. The relationships for these effects are included in the model using the following equations. Eq 2 describes the drug anti-proliferative effect in the net proliferation rate for a given cell type. Eq 3 describes the cell-killing EmaxCK effect.
(§6) Towards the estimation of mechanistic parameters, we considered different formulations: (a) weighting the objective value to prioritize fitting dead cells and (b) using regularization methodology to encourage a parsimonious solution. We assessed the contributions of these formulations using mean-squared error and goodness of fit plots for drugs with known mechanisms. […] Further, we used L1 regularization to penalize parameters […] to help identify a parsimonious set of parameters to explain drug effects.

[2] = test system: monocyte progenitors (monocyte prog); assay: MLTA, MonoP: concentration-response and QSP model fit; format: cell-based, human; settings: Homo sapiens, Monocyte, 144 h
Description: as §1, §2, §3, §4, §5, §6

monocytes (monocyte-lin) = assay: MLTA, Mono: concentration-response and QSP model fit; format: cell-based, human; settings: Homo sapiens, Monocyte, 144 h
Description: as §1, §2, §3, §4, §5, §6

[3] = test system: neutrophils (neutrophil-lin); assay: MLTA, Neut: concentration-response and QSP model fit; format: cell-based, human; settings: Homo sapiens, Neutrophil, 144 h
Description: as §1, §2, §3, §4, §5, §6

[4] = test system: early erythroid cells (Eryth I); assay: MLTA, ErythI: concentration-response and QSP model fit; format: cell-based, human; settings: Homo sapiens, 144 h
Description: as §1, §2, §3, §4, §5, §6

[5] = test system: late erythroid cells (Eryth II); assay: MLTA, ErythII: concentration-response and QSP model fit; format: cell-based, human; settings: Homo sapiens, 144 h
Description: as §1, §2, §3, §4, §5, §6

[6] = test system: total dead cells (totalDeadCells); assay: MLTA, total dead cells concentration-response; format: cell-based; settings: Homo sapiens, 144 h, 6 days, normalized to vehicle control, read-out: total_dead normalized cell count
Description: as §1, §2, §3, §4

[7] = QSP model fit of 6-day MLTA data

## CCN1CCN(Cc2ccc(Nc3ncc(F)c(-c4cc(F)c5nc(C)n(C(C)C)c5c4)n3)nc2)CC1 [abemaciclib]
[1]; Homo sapiens, Hematopoietic stem cell, 144 h, QSP model fit of 6-day MLTA data
  EC50: 111 nM
[1]; Homo sapiens, Hematopoietic stem cell, 144 h, dose 0.2 nM, 6 days, normalized to vehicle control, read-out: HSCs normalized cell count
  activity at 0.0002 µM: 89.3%
[1]; Homo sapiens, Hematopoietic stem cell, 144 h, dose 1 nM, 6 days, normalized to vehicle control, read-out: HSCs normalized cell count
  activity at 0.001 µM: 103%
[1]; Homo sapiens, Hematopoietic stem cell, 144 h, dose 5 nM, 6 days, normalized to vehicle control, read-out: HSCs normalized cell count
  activity at 0.005 µM: 98.4%
[1]; Homo sapiens, Hematopoietic stem cell, 144 h, dose 25 nM, 6 days, normalized to vehicle control, read-out: HSCs normalized cell count
  activity at 0.025 µM: 66.7%
[1]; Homo sapiens, Hematopoietic stem cell, 144 h, dose 100 nM, 6 days, normalized to vehicle control, read-out: HSCs normalized cell count
  activity at 0.1 µM: 25.9%
[1]; Homo sapiens, Hematopoietic stem cell, 144 h, dose 500 nM, 6 days, normalized to vehicle control, read-out: HSCs normalized cell count
  activity at 0.5 µM: 5.33%
[1]; Homo sapiens, Hematopoietic stem cell, 144 h, dose 2500 nM, 6 days, normalized to vehicle control, read-out: HSCs normalized cell count
  activity at 2.5 µM: 2.74%
[1]; Homo sapiens, Hematopoietic stem cell, 144 h, parameter from QSP model fitting, read-out: Emax_drug_HSC
  Emax: 91%
[1]; anti-proliferation component, min(1, EmaxT)
  EmaxAP,HSC: 0.910
[2]; dose 0.2 nM, 6 days, normalized to vehicle control, read-out: MonoPs normalized cell count
  activity at 0.0002 µM: 98.7%
[2]; dose 1 nM, 6 days, normalized to vehicle control, read-out: MonoPs normalized cell count
  activity at 0.001 µM: 99.4%
[2]; dose 5 nM, 6 days, normalized to vehicle control, read-out: MonoPs normalized cell count
  activity at 0.005 µM: 80.6%
[2]; dose 25 nM, 6 days, normalized to vehicle control, read-out: MonoPs normalized cell count
  activity at 0.025 µM: 27.5%
[2]; dose 100 nM, 6 days, normalized to vehicle control, read-out: MonoPs normalized cell count
  activity at 0.1 µM: 8.19%
[2]; dose 500 nM, 6 days, normalized to vehicle control, read-out: MonoPs normalized cell count
  activity at 0.5 µM: 1.58%
[2]; dose 2500 nM, 6 days, normalized to vehicle control, read-out: MonoPs normalized cell count
  activity at 2.5 µM: 0.0911%
[2]; parameter from QSP model fitting, read-out: Emax_drug_MonoP
  Emax: 0.17%
Monocytes (monocyte-lin); [7]
  EC50: 46.2 nM
Monocytes (monocyte-lin); dose 0.2 nM, 6 days, normalized to vehicle control, read-out: Mon normalized cell count
  activity at 0.0002 µM: 92.9%
Monocytes (monocyte-lin); dose 1 nM, 6 days, normalized to vehicle control, read-out: Mon normalized cell count
  activity at 0.001 µM: 109%
Monocytes (monocyte-lin); dose 5 nM, 6 days, normalized to vehicle control, read-out: Mon normalized cell count
  activity at 0.005 µM: 87%
Monocytes (monocyte-lin); dose 25 nM, 6 days, normalized to vehicle control, read-out: Mon normalized cell count
  activity at 0.025 µM: 41.8%
Monocytes (monocyte-lin); dose 100 nM, 6 days, normalized to vehicle control, read-out: Mon normalized cell count
  activity at 0.1 µM: 10.9%
Monocytes (monocyte-lin); dose 500 nM, 6 days, normalized to vehicle control, read-out: Mon normalized cell count
  activity at 0.5 µM: 3.74%
Monocytes (monocyte-lin); dose 2500 nM, 6 days, normalized to vehicle control, read-out: Mon normalized cell count
  activity at 2.5 µM: 0.588%
Monocytes (monocyte-lin); parameter from QSP model fitting, read-out: Emax_drug_Mono
  Emax: 23.1%
[3]; [7]
  EC50: 66.2 nM
[3]; dose 0.2 nM, 6 days, normalized to vehicle control, read-out: Neut normalized cell count
  activity at 0.0002 µM: 99.5%
[3]; dose 1 nM, 6 days, normalized to vehicle control, read-out: Neut normalized cell count
  activity at 0.001 µM: 100%
[3]; dose 5 nM, 6 days, normalized to vehicle control, read-out: Neut normalized cell count
  activity at 0.005 µM: 86.7%
[3]; dose 25 nM, 6 days, normalized to vehicle control, read-out: Neut normalized cell count
  activity at 0.025 µM: 30.8%
[3]; dose 100 nM, 6 days, normalized to vehicle control, read-out: Neut normalized cell count
  activity at 0.1 µM: 4.02%
[3]; dose 500 nM, 6 days, normalized to vehicle control, read-out: Neut normalized cell count
  activity at 0.5 µM: 0.252%
[3]; dose 2500 nM, 6 days, normalized to vehicle control, read-out: Neut normalized cell count
  activity at 2.5 µM: 0.0296%
[3]; parameter from QSP model fitting, read-out: Emax_drug_Neut
  Emax: 23.5%
[4]; QSP model fit of 6-day MLTA data, read-out: EC50ErythI
  EC50: 29.2 nM
[4]; dose 0.2 nM, 6 days, normalized to vehicle control, read-out: ErythI normalized cell count
  activity at 0.0002 µM: 107%
[4]; dose 1 nM, 6 days, normalized to vehicle control, read-out: ErythI normalized cell count
  activity at 0.001 µM: 116%
[4]; dose 5 nM, 6 days, normalized to vehicle control, read-out: ErythI normalized cell count
  activity at 0.005 µM: 97.8%
[4]; dose 25 nM, 6 days, normalized to vehicle control, read-out: ErythI normalized cell count
  activity at 0.025 µM: 47.1%
[4]; dose 100 nM, 6 days, normalized to vehicle control, read-out: ErythI normalized cell count
  activity at 0.1 µM: 20.1%
[4]; dose 500 nM, 6 days, normalized to vehicle control, read-out: ErythI normalized cell count
  activity at 0.5 µM: 4.76%
[4]; dose 2500 nM, 6 days, normalized to vehicle control, read-out: ErythI normalized cell count
  activity at 2.5 µM: 0.613%
[4]; parameter from QSP model fitting, read-out: Emax_drug_ErythroidI
  Emax: 102%
[5]; QSP model fit of 6-day MLTA data, read-out: EC50ErythII
  EC50: 45.1 nM
[5]; dose 0.2 nM, 6 days, normalized to vehicle control, read-out: ErythII normalized cell count
  activity at 0.0002 µM: 96.2%
[5]; dose 1 nM, 6 days, normalized to vehicle control, read-out: ErythII normalized cell count
  activity at 0.001 µM: 112%
[5]; dose 5 nM, 6 days, normalized to vehicle control, read-out: ErythII normalized cell count
  activity at 0.005 µM: 106%
[5]; dose 25 nM, 6 days, normalized to vehicle control, read-out: ErythII normalized cell count
  activity at 0.025 µM: 57.9%
[5]; dose 100 nM, 6 days, normalized to vehicle control, read-out: ErythII normalized cell count
  activity at 0.1 µM: 20.4%
[5]; dose 500 nM, 6 days, normalized to vehicle control, read-out: ErythII normalized cell count
  activity at 0.5 µM: 1.77%
[5]; dose 2500 nM, 6 days, normalized to vehicle control, read-out: ErythII normalized cell count
  activity at 2.5 µM: 0.0231%
[5]; parameter from QSP model fitting, read-out: Emax_drug_ErythroidII
  Emax: 3.33%
[6]; dose 0.2 nM
  activity at 0.0002 µM: 92%
[6]; dose 1 nM
  activity at 0.001 µM: 97.6%
[6]; dose 5 nM
  activity at 0.005 µM: 87.1%
[6]; dose 25 nM
  activity at 0.025 µM: 46.8%
[6]; dose 100 nM
  activity at 0.1 µM: 30.9%
[6]; dose 500 nM
  activity at 0.5 µM: 22%
[6]; dose 2500 nM
  activity at 2.5 µM: 34%
